US9156881B2, “Tripeptide KDPT for antiapoptotic treatment” (WESTFAELISCHE WILHELMS-UNIVERSITAET MUENSTER, priority 2011, dated 2015)

Key:
human sebocytes = conditions: cited from earlier work
murine DSS colitis = assay: Epithelial apoptosis rate in murine DSS-colitis (anti-active Caspase 3 staining of colon sections); assay type: in vivo; conditions: DSS-treated WT mice, KdPT 10 μg/day/animal i.p. daily, vs PBS control, P<0.05
Method: To further evaluate the impact of KdPT on the epithelial apoptosis rate in vivo, the murine DSS colitis was performed. Dextran sodium sulfate (DSS)-induced colitis was accomplished as described in Bettenworth Am J Pathol 2011. WT mice were given 3% DSS (ICN Biomedicals Inc., Eschwege, Germany) in drinking water for 5 days, and disease activity was monitored daily by body weight measurement. Afterwards, the mice received regular drinking water again to monitor the improvement in inflammation. PBS-diluted KdPT (10 μg/day/animal; Bachem Americas Inc., Torrance, Calif.) was given daily by intraperitoneal (i.p.). injection until the end of the experiment. Control mice received PBS only.
At the end of the experiment, the mice were sacrificed and the colons removed. The colons were opened, embedded in Tissue-Tek O.C.T. (Sukura Finetek Europe, Zoeterwoude, The Netherlands), and kept frozen at −80° C. until further use. […] Immunhistological stainings were analyzed by two blinded investigators.
To assess apoptosis rate, the number of anti-active Caspase 3 positive cells per total crypt epithelial cells was counted. The number of anti-active Caspase 3 positive cells in colonic tissue was assessed as a […], determined after KdPT administration in DSS-treated mice.

[1] = test system: human dermal microvascular endothelial cells (HMEC); assay: M30-ApoptosisSense ELISA (cytokeratin 18) apoptosis rate in HMEC; assay type: cell-based
Method: To further elucidate the impact of KdPT administration on apoptosis in a different human cell line, additional experiments were performed in human dermal microvascular endothelial cells (HMEC) which are endothelial cells. The apoptosis rate in epithelial cells was measured by the M30-ApoptosisSense ELISA (PEVIVA, Bromma, Sweden), detecting cytokeratin 18 with a specific monoclonal M30 antibody, whereas before cytokeratin 18 was cleaved by the enzyme caspase. The HMEC cells grew semiconfluent in cell culture flasks, before plating them on a 6 well plate. One plate was stimulated with 10-5 and 10-6 M KdPT solved in routine medium (SFM, white column), the control plate was stimulated with the routine-medium alone.

colonic epithelial cells = conditions: cited from earlier work
experimental colitis = conditions: both colitis models (DSS, IL-10 gene-deficient mice); cited from earlier work
melanogenesis = conditions: in vitro; cited from earlier work
[2] = test system: caco-2 cells (human intestinal epithelial cells); assay: M30-ApoptosisSense ELISA (cytokeratin 18) apoptosis rate in intestinal epithelial cells; assay type: cell-based; conditions: p<0.05, FIG. 1
Method: The apoptosis rate in epithelial cells was measured by the M30-ApoptosisSense ELISA
(PEVIVA, Bromma, Sweden), detecting cytokeratin 18 with a specific monoclonal M30 antibody, whereas before cytokeratin 18 was cleaved by the enzyme caspase. The caco-2 cells (human intestinal epithelial cells) grew semiconfluent in cell culture flasks, before plating them on a 6 well plate. One plate was stimulated with 10^−5 and 10^−6 M KdPT solved in routine medium (SFM, white column), the control plate was stimulated with the routine-medium alone.

For (I)Lys-(d)Pro-(I)Thr [KdPT], the “IL-1(beta)-mediated cytokine expression and signaling” value (human sebocytes) is given as “suppresses”, the “number of anti-active Caspase 3 positive cells per total crypt epithelial cells” value (murine DSS colitis) is given as “dramatically decreased” and the “apoptosis rate (M30 ELISA, cytokeratin 18)” value ([1]; HMEC costimulated with KdPT, 24 h incubation, control 1150.5 U/I) is given as 965.9 U/I. For the same substance, the “reduction of apoptosis rate” value ([1]; HMEC, 10-5 and 10-6 M KdPT, 24 h incubation, vs control plate, p=0.002) was 19.2%, the “apoptosis rate on costimulation with KdPT (in words)” value ([1]; HMEC, FIG. 2) was “significant reduction of the apoptosis rate” and the transepithelial electrical resistance (colonic epithelial cells; after stimulation with interferon-γ/tumor necrosis factor-α) was “improved transepithelial electrical resistance”. The closure of wounds (colonic epithelial cells; colonic epithelial cells) was “accelerated closure of wounds”, the proliferation (colonic epithelial cells; colonic epithelial cells) was “increased proliferation” and the severity of inflammation (experimental colitis) was “markedly reduced severity of inflammation”. The melanogenesis (melanogenesis) was “did not affect melanogenesis” and the “apoptosis rate on costimulation with KdPT (in words)” value [2] was “significant reduction of the apoptosis rate”.
